Measured values as given in patent US8735417B2, “Aminopyrimidines as Syk inhibitors” (Merck Sharp & Dohme Corp., priority 2009, dated 2014).

Each molecule was assayed against T1, recombinant human GST-SYK (Homo sapiens, UniProt P43405) (assay: Homogeneous Time-Resolved Fluorescence (HTRF) assay for the recombinant human SYK enzyme). Settings: recombinant human GST-SYK 5 pM, ATP 25 μM, 10-dose titration; read-out: rhSYK Activity (IC50).
T1 construct: purchased Carna Biosciences 08-176
Type: biochemical
Protocol: Homogeneous Time-Resolved Fluorescence (HTRF) Assay for the Recombinant Human SYK Enzyme:
A recombinant GST-hSYK fusion protein was used to measure potency of compounds to inhibit human SYK activity. The recombinant human GST-SYK (Carna Biosciences #08-176) (5 pM final concentration) was incubated with various concentrations of the inhibitor diluted in DMSO (0.1% final concentration) for 10 minutes at room temperature in 15 mM Tris-HCl (pH 7.5), 0.01% tween 20, 2 mM DTT in 384 well plate format. To initiate the reaction the biotinylated substrate peptide (250 nM final concentration) that contains the phosphorylation site for SYK was added with magnesium (5 mM final concentration) and ATP (25 μM final concentration). Final volume of the reaction was 10 μL. Phosphorylation of the peptide was allowed to proceed for 45′ at room temperature. To quench the reaction and detect the phosphorylated product, 2 nM of a Europium-atiti-phosphotyrosine antibody (Perkin Elmer #AD0161) and 70 nM SA-APC (Perkin-Elmer #CR130-100) were added together in 15 mM Tris pH 7.5, 40 mM EDTA, 0.01% tween 20. Final volume of the quenching solution was 10 μL. The resulting HTRF signal was measured after 30 minutes on a EnVision (Perkin-Elmer) reader using a time-resolved fluorescence protocol.

IC50 [nM] | SMILES
100 to 1000 | OCCCCCCN(Cc1ccccc1)c1ncc(-c2cccc(Nc3nccc(C(F)(F)F)n3)c2)s1 [Example 26]
100 to 1000 | C=CCOC(=O)N1CCN(c2ncc(-c3cccc(Nc4nccc(C(F)(F)F)n4)c3)s2)C(CO)C1 (stereo not drawn) [Example 126]
≤ 100 | Cc1cc(Nc2nccc(SCCO)n2)cc(-c2cnc(N3CCCNC(=O)C3)s2)c1 [Example 222, 4-{5-[3-({4-[(2-hydroxyethyl)sulfanyl]pyrimidin-2-yl}amino)-5-methylphenyl]-1,3-thiazol-2-yl}-1,4-diazepan-2-one]
≤ 100 | Cc1cc(Nc2ncc(Cl)c(C)n2)cc(-c2cnc(N3CCCNC(=O)C3)s2)c1 [Example 211, 4-(5-{3-[(5-Chloro-4-methylpyrimidin-2-yl)amino]-5-methylphenyl}-1,3-thiazol-2-yl)-1,4-diazepan-2-one]
≤ 100 | OCC1CCN(c2ncc(-c3cccc(Nc4nccc(C(F)(F)F)n4)c3)s2)CC1 [Example 130]
≤ 100 | CCC(CO)Nc1ncc(-c2cc(C)cc(Nc3nccc(C(F)(F)F)n3)c2)s1 (stereo not drawn) [Example 84]
100 to 1000 | Cc1cc(C)n(CCNc2ncc(-c3cccc(Nc4nccc(C(F)(F)F)n4)c3)s2)n1 [Example 63]
≤ 100 | Cc1cc(Nc2nccc(C(F)(F)F)n2)cc(-c2cnc(N(C)CCO)s2)c1 [Example 27]
≤ 100 | NC(=O)C1CCN(c2ncc(-c3cccc(Nc4nccc(C(F)(F)F)n4)c3)s2)CC1 [Example 191, 1-[5-(3-{[4-(trifluoromethyl)pyrimidin-2-yl]amino}phenyl)-1,3-thiazol-2-yl]piperidine-4-carboxamide]
≤ 100 | CC(C)(O)CNc1ncc(-c2cccc(Nc3nccc(C(F)(F)F)n3)c2)s1 [Example 29]
≤ 100 | Cc1cc(Nc2nccc(C(F)(F)F)n2)cc(-c2cnc(NCc3cn(C)cn3)s2)c1 [Example 94]
≤ 100 | CCCC[C@@H](CO)Nc1ncc(-c2cccc(Nc3nccc(C(F)(F)F)n3)c2)s1 [Example 74]
≤ 100 | FC(F)(F)c1ccnc(Nc2cccc(-c3cnc(NCC4CCOCC4)s3)c2)n1 [Example 61]
100 to 1000 | CC(Nc1ncc(-c2cccc(Nc3nccc(C(F)(F)F)n3)c2)s1)c1ccccc1 (stereo not drawn) [Example 55]
1000 to 10000 | Cc1cc(Nc2nccc(C(F)(F)F)n2)cc(-c2cnc(N3CCC(c4ccc(S(C)(=O)=O)cc4)CC3)s2)c1 [Example 146]
≤ 100 | Cn1cncc1CNc1ncc(-c2cccc(Nc3nccc(C(F)(F)F)n3)c2)s1 [Example 22]
≤ 100 | COCC(=O)N1CCN(c2ncc(-c3cccc(Nc4nccc(C(F)(F)F)n4)c3)s2)CC1 [Example 127]
≤ 100 | Nc1ncc(-c2cccc(Nc3nccc(C(F)(F)F)n3)c2)s1 [Example 181, N-[3-(2-amino-1,3-thiazol-5-yl)phenyl]-4-(trifluoromethyl)pyrimidin-2-amine]
≤ 100 | CCCCSc1ccnc(Nc2cc(C)cc(-c3cnc(N4CCCNC(=O)C4)s3)c2)n1 [Example 217, 4-[5-(3-{[4-(butylsulfanyl)pyrimidin-2-yl]amino}-5-methyphenyl)-1,3-thiazol-2-yl]-1,4-diazepan-2-one]
≤ 100 | CN(c1ncc(-c2cccc(Nc3nccc(C(F)(F)F)n3)c2)s1)C1CCOC1 (stereo not drawn) [Example 36]

IC50 [nM] | SMILES
100 to 1000 | Cc1ccnc(Nc2cccc(-c3csc(N4CCC(C(=O)O)CC4)n3)c2)n1 [Example 231, 1-(4-{3-[(4-methylpyrimidin-2-yl)amino]phenyl}-1,3-thiazol-2-yl)piperidine-4-carboxylic acid]
≤ 100 | Cc1cc(Nc2nccc(C(F)(F)F)n2)cc(-c2cnc(NC(C)c3cccnc3)s2)c1 (stereo not drawn) [Example 99]
≤ 100 | COc1ccnc(Nc2cc(C)cc(-c3sc(N4CCCNC(=O)C4)nc3Cl)c2)n1 [Example 227, 4-(4-chloro-5-{3-[(4-methoxypyrimidin-2-yl)amino]-5-methylphenyl}-1,3-thiazol-2-yl)-1,4-diazepan-2-one]
100 to 1000 | CN(Cc1ccccc1)c1ncc(-c2cccc(Nc3nccc(C(F)(F)F)n3)c2)s1 [Example 48]
≤ 100 | Cc1cc(Nc2nccc(C(F)(F)F)n2)cc(-c2cnc(NCc3cncn3C)s2)c1 [Example 87]
≤ 100 | Cc1cc(Nc2nccc(C(F)(F)F)n2)cc(-c2cnc(NCCC3(O)CCN(C)CC3)s2)c1 [Example 116]
100 to 1000 | OC1(C(F)(F)F)CN(c2ncc(-c3cccc(Nc4nccc(C(F)(F)F)n4)c3)s2)C1 [Example 155]
≤ 100 | FC(F)(F)c1ccnc(Nc2cccc(-c3cnc(NCC4CCCNC4)s3)c2)n1 (stereo not drawn) [Example 59]
≤ 100 | Cc1cc(Nc2nccc(C(F)(F)F)n2)cc(-c2cnc(NCc3cnn(C)c3)s2)c1 [Example 100]
≤ 100 | FC(F)(F)c1ccnc(Nc2cccc(-c3cnc(N4CCOCC4)s3)c2)n1 [Example 119]
≤ 100 | C=Cc1ccnc(Nc2cc(C)cc(-c3cnc(N4CCCNC(=O)C4)s3)c2)n1 [Example 199, 4-(5-{3-[(4-ethenylpyrimidin-2-yl)amino]-5-methylphenyl}-1,3-thiazol-2-yl)-1,4-diazepan-2-one]
≤ 100 | CC(=O)Nc1cc(Nc2nccc(C(F)(F)F)n2)cc(-c2cnc(N(C)CCO)s2)c1 [Example 186]
≤ 100 | CN(CC(O)c1ccccc1)c1ncc(-c2cccc(Nc3nccc(C(F)(F)F)n3)c2)s1 (stereo not drawn) [Example 7]
≤ 100 | Cc1cc(CNc2ncc(-c3cccc(Nc4nccc(C(F)(F)F)n4)c3)s2)no1 [Example 83]
≤ 100 | OC1CCCC(Nc2ncc(-c3cccc(Nc4nccc(C(F)(F)F)n4)c3)s2)C1 (stereo not drawn) [Example 82]
≤ 100 | Cc1cc(Nc2nccc(C(F)(F)F)n2)cc(-c2cnc(NCCc3c[nH]cn3)s2)c1 [Example 93]
≤ 100 | O=C1OCCN1c1ncc(-c2cccc(Nc3nccc(C(F)(F)F)n3)c2)s1 [Example 175, 3-[5-(3-{[4-(trifluoromethyl)pyrimidin-2-yl]amino}phenyl)-1,3-thiazol-2-yl]-1,3-oxazolidin-2-one]
≤ 100 | FC(F)(F)c1ccnc(Nc2cccc(-c3cnc(-n4ccnc4)s3)c2)n1 [Example 178]
≤ 100 | CS(=O)(=O)Nc1ncc(-c2cccc(Nc3nccc(C(F)(F)F)n3)c2)s1 [Example 177]
≤ 100 | CC(=O)NCCC1CCN(c2ncc(-c3cc(C)cc(Nc4nccc(C(F)(F)F)n4)c3)s2)CC1 [Example 150]

IC50 [nM] | SMILES
≤ 100 | CC(=O)Nc1cc(Nc2nccc(C(F)(F)F)n2)cc(-c2cnc(NCCO)s2)c1 [Example 187]
≤ 100 | COCC(O)CNc1ncc(-c2cccc(Nc3nccc(C(F)(F)F)n3)c2)s1 (stereo not drawn) [Example 50]
≤ 100 | OCCN(CCO)c1ncc(-c2cc(Nc3nccc(C(F)(F)F)n3)cc(N3CCOCC3)c2)s1 [Example 194, 2,2′-({5-[3-(morphpholin-4-yl)-5-{[4-(trifluoromethyl)pyrimidin-2-yl]amino}phenyl]-1,3-thiazol-2-yl}imino)diethanol]
≤ 100 | Cc1cc(Nc2nccc(OC3CCOC3)n2)cc(-c2cnc(N3CCCNC(=O)C3)s2)c1 (stereo not drawn) [Example 214]
≤ 100 | Cc1cc(Nc2nccc(C(F)(F)F)n2)cc(-c2cnc(NCc3ccncc3)s2)c1 [Example 86]
100 to 1000 | Cc1cc(Nc2ncc(F)c(OC3CCOC3)n2)cc(-c2cnc(N3CCCNC(=O)C3)s2)c1 (stereo not drawn) [Example 216, 4-[5-(3-{[5-fluoro-4-(tetrahydrofuran-3-yloxy)pyrimidin-2-yl]amino}-5-methylphenyl)-1,3-thiazol-2-yl]-1,4-diazepan-2-one]
100 to 1000 | Cc1cc(Nc2nccc(C(F)(F)F)n2)cc(-c2csc(N3CCC(O)CC3)n2)c1 [Example 225, 1-[4-(3-methyl-5-{[4-(trifluoromethyl)pyrimidin-2-yl]amino}phenyl)-1,3-thiazol-2-yl]piperidin-4-ol]
≤ 100 | CC(C)(CO)Nc1ncc(-c2cccc(Nc3nccc(C(F)(F)F)n3)c2)s1 [Example 23]
≤ 100 | CCc1ccnc(Nc2cc(C)cc(-c3cnc(N4CCCNC(=O)C4)s3)c2)n1 [Example 207]
≤ 100 | OC(CNc1ncc(-c2cccc(Nc3nccc(C(F)(F)F)n3)c2)s1)C(F)F (stereo not drawn) [Example 13]
≤ 100 | O=C1CCN(c2ncc(-c3cccc(Nc4nccc(C(F)(F)F)n4)c3)s2)CCN1 [Example 168]
100 to 1000 | Oc1ccc(CCNc2ncc(-c3cccc(Nc4nccc(C(F)(F)F)n4)c3)s2)cc1 [Example 46]
≤ 100 | Cc1cc(Nc2nccc(C(F)(F)F)n2)cc(-c2cnc(N3CC4CNC(CO)C4C3)s2)c1 (stereo not drawn) [Example 165]
≤ 100 | Cc1cc(Nc2nccc(C(F)(F)F)n2)cc(-c2cnc(NCCc3ccncc3)s2)c1 [Example 118]
≤ 100 | CCC(C)Nc1ncc(-c2cccc(Nc3nccc(C(F)(F)F)n3)c2)s1 (stereo not drawn) [Example 42]
100 to 1000 | Cc1cc(Nc2nccc(C(F)(F)F)n2)cc(-c2cnc(N(C)Cc3nc4ccccc4o3)s2)c1 [Example 102]
≤ 100 | CCNC(=O)Nc1cc(Nc2nccc(C(F)(F)F)n2)cc(-c2cnc(NCCO)s2)c1 [Example 188]
≤ 100 | CC1C(=O)NCCN1c1ncc(-c2cccc(Nc3nccc(C(F)(F)F)n3)c2)s1 (stereo not drawn) [Example 124]
≤ 100 | Cn1cc(CNc2ncc(-c3cccc(Nc4nccc(C(F)(F)F)n4)c3)s2)cn1 [Example 62]
≤ 100 | Cc1cc(CNc2ncc(-c3cccc(Nc4nccc(C(F)(F)F)n4)c3)s2)n(C)n1 [Example 69]
